Columns and labels:
panel of 4 panelists = experiment: Organoleptic test of the compounds against sucrose and Pterocaryoside A; type: in vivo; design: key to sweetness compared to sucrose: 3: sweeter than the control solution; 2: sweetness comparable with the control solution; 1: less sweet than the control solution but still sweet; details: for sweetness compared to sucrose: 0.4 mg/ml (400 ppm) in non-carbonated mineral water vs sucrose 20 mg/ml, panel of 4 panelists; for comment (bitter off taste): 0.4 mg/ml (400 ppm) in non-carbonated mineral water, compared with Pterocaryoside A
Procedure: (§1) The isolated pure compounds were dissolved in non-carbonated mineral water (“Fonsana Quelle”) in a concentration of 0.4 mg/ml (400 ppm). The sweet taste of each sample was compared by a panel of 4 panelists with a solution of sucrose in a concentration of 20 mg/ml.

[1] = in vivo; cited from earlier work
[2] = Solubility in non-carbonated mineral water at the test concentration; type: physicochemical; details: 0.4 mg/ml in non-carbonated mineral water
Procedure: as §1

panel = details: ammonium salt; panel rating; cited from earlier work

## C=C(C)C(O)C(O)CC(C)(O)C1CCC2(C)C1C(O[C@@H]1OCC(O)[C@H](O)[C@H]1O)CC1C(C)(CCC(=O)O)C(C(=C)C)CCC12C (stereo in doubt) [Compound D, 3-(6,9a,9b-trimethyl-7-(prop-1-en-2-yl)-3-(2,4,5-trihydroxy-6-methylhept-6-en-2-yl)-4-((2S,3R,4S,5S)-3,4,5-trihydroxytetrahydro-2H-pyran-2-yloxy)dodecahydro-1H-cyclopenta[a]naphthalen-6-yl)propanoic acid]
Panel of 4 panelists
  sweetness compared to sucrose: 3
  comment (bitter off taste): less bitter than Pterocaryoside A

## C=C(C)C1CCC2(C)C(CC(O[C@@H]3OC[C@H](O)[C@H](O)[C@H]3O)C3C(C4(C)CCC(C(C)(C)O)O4)CCC32C)C1(C)CCC(=O)O (stereo partly drawn) [Compound A, 3-(3-(5-(2-hydroxypropan-2-yl)-2-methyltetrahydrofuran-2-yl)-6,9a,9b-trimethyl-7-(prop-1-en-2-yl)-4-((2S,3R,4S,5S)-3,4,5-trihydroxytetrahydro-2H-pyran-2-yloxy)dodecahydro-1H-cyclopenta[a]naphthalen-6-yl)propanoic acid]
Panel of 4 panelists
  sweetness compared to sucrose: 3
  comment (bitter off taste): less bitter than Pterocaryoside A

## C=C(C)C(O)CCC(C)(O)C1CCC2(C)C1C(OC1OC(COC(C)=O)C(O)C1O)CC1C(C)(CCC(=O)O)C(C(=C)C)CCC12C (stereo not drawn) [Compound B, 3-(4-(5-(acetoxymethyl)-3,4-dihydroxytetrahydrofuran-2-yloxy)-3-(2,5-dihydroxy-6-methylhept-6-en-2-yl)-6,9a,9b-trimethyl-7-(prop-1-en-2-yl)dodeca hydro-1H-cyclopenta[a]naphthalen-6-yl)propanoic acid]
Panel of 4 panelists
  sweetness compared to sucrose: 1
  comment (bitter off taste): slightly bitter off taste comparable to

## C=C(C)C(O)C(O)CC(C)(O)C1CCC2(C)C1C(O[C@@H]1O[C@H](C)[C@@H](O)[C@H](O)[C@H]1O)CC1C(C)(CCC(=O)O)C(C(=C)C)CCC12C (stereo partly drawn) [Compound C, 3-(6,9a,9b-trimethyl-7-(prop-1-en-2-yl)-3-(2,4,5-trihydroxy-6-methylhept-6-en-2-yl)-4-((2R,3R,4S,5S,6R)-3,4,5-trihydroxy-6-methyltetrahydro-2H-pyran-2-yloxy)dodecahydro-1H-cyclopenta[a]naphthalen-6-yl)propanoic acid]
Panel of 4 panelists
  sweetness compared to sucrose: 3
  comment (bitter off taste): less bitter than Pterocaryoside A

## C=C(C)C1CCC2(C)C(CC(O[C@@H]3OC[C@H](O)[C@H](O)[C@H]3O)C3C(C(C)=O)CCC32C)C1(C)CCC(=O)O (stereo partly drawn) [Compound E, 3-(3-acetyl-6,9a,9b-trimethyl-7-(prop-1-en-2-yl)-4-((2S,3R,4S,5S)-3,4,5-trihydroxytetrahydro-2H-pyran-2-yloxy)dodecahydro-1H-cyclopenta[a]naphthalen-6-yl)propanoic acid]
Panel of 4 panelists
  sweetness compared to sucrose: 3
  comment (bitter off taste): less bitter than Pterocaryoside A

## C[C@H](CC[C@@H](O[C@@H]1O[C@H](CO[C@@H]2O[C@H](CO)[C@@H](O)[C@H](O)[C@H]2O)[C@@H](O)[C@H](O)[C@H]1O[C@@H]1O[C@H](CO)[C@@H](O)[C@H](O)[C@H]1O)C(C)(C)O)[C@H]1CC[C@@]2(C)[C@@H]3CC=C4[C@@H](CC[C@H](O[C@@H]5O[C@H](CO)[C@@H](O[C@@H]6O[C@H](CO)[C@@H](O)[C@H](O)[C@H]6O)[C@H](O)[C@H]5O)C4(C)C)[C@]3(C)[C@H](O)C[C@]12C [iso-mogroside V]
[1]
  aftertaste: certain bitter aftertaste

## C[C@H](CC[C@@H](O[C@@H]1O[C@H](CO[C@@H]2O[C@H](CO)[C@@H](O)[C@H](O)[C@H]2O)[C@@H](O)[C@H](O)[C@H]1O[C@@H]1O[C@H](CO)[C@@H](O)[C@H](O)[C@H]1O)C(C)(C)O)[C@H]1CC[C@@]2(C)[C@@H]3CC=C4[C@@H](CC[C@H](O[C@@H]5O[C@H](CO[C@@H]6O[C@H](CO)[C@@H](O)[C@H](O)[C@H]6O)[C@@H](O)[C@H](O)[C@H]5O)C4(C)C)[C@]3(C)[C@H](O)C[C@]12C [mogroside V]
[1]
  aftertaste: certain bitter aftertaste

## Pterocaryoside A
[2]
  solubility at the desired concentration: not completely soluble
Panel of 4 panelists
  comment (bitter off taste): strong bitter and slightly hot off-taste
Panel of 4 panelists; solution at desired 0.4 mg/ml, not completely dissolved, vs sucrose 20 mg/ml
  sweetness compared with the sucrose solution (in words): comparable to the sweetness of the sucrose solution
panel
  off-taste: persistent, mildly bitter, off-taste
  onset of sweetness: instantaneous
  sweetness relative to sucrose: about 50 times sweeter than 2% sucrose

## Pterocaryoside B
panel
  off-taste: persistent, mildly bitter, off-taste
  onset of sweetness: instantaneous
  sweetness relative to sucrose: about 100 times sweeter than 2% sucrose

From patent publication US20180354980A1, “NOVEL TRITERPENE-GLYCOSIDES AS SWEETENERS OR SWEETENER ENHANCER” (Analyticon Discovery GmbH, priority 2015, published 2018)
